Measured values taken from US9358244B2, “Solid dosage forms of oleyl phosphocholine” (Oblita Therapeutics BVBA, priority 2010, dated 2016).
≈ marks a conversion by molar mass, not a printed value.

Key:
[1] = test system: Leishmania infantum (MHOM/MA (BE)/67) amastigotes; assay: Curative efficacy against Leishmania infantum in the hamster model, oral 5 days; type: in vivo; settings: for Bone marrow % red / Liver % red / Spleen % red: reduction vs VIC; for Bone marrow Mean ± SE of amastigotes per nucleus / Liver Mean ± SE of LDU / Spleen Mean ± SE of LDU: 10 days after last treatment
Experimental: Golden hamsters (female, 75 g) were allocated randomly to 7 groups with 8 animals per group. • G1: vehicle infected control (VIC): 200 μl blank vehicle orally 5 days • G2: MIL-PBS: 5×40 mg/kg (=98.1 μmol/kg) orally for 5 days • G3: MIL-PBS: 5×20 mg/kg (=49.1 μmol/kg) orally for 5 days • G4: OlPC-PBS: 5×42.5 mg/kg (=98.1 μmol/kg) orally for 5 days • G5: OlPC-PBS: 5×21.2 mg/kg (=49.1 μmol/kg) orally for 5 days • G6: OlPC-liposomes: 5×2.4 ml/kg (=98.1 μmol/kg) orally for 5 days • G7: OlPC-liposomes: 5×1.2 ml/kg (=49.1 μmol/kg) orally for 5 days Drinking water and food were available ad libitum throughout the experiment. […] Artificial Infection
Leishmania infantum (MHOM/MA (BE)/67) amastigotes were obtained from the spleen of heavily infected donor hamsters. The total parasite burden was determined on Giemsa-stained smears. Amastigotes in the spleen homogenate were concentrated using two centrifugation steps (low speed (300 rpm) with collection of the supernatant−high speed (4200 rpm) with collection of the pellet). The parasite burdens in the spleen were estimated using the Stauber technique and the amastigote suspension was diluted to prepare the infection inocula for intracardial infection containing 2×10^7 amastigotes/100 μl. At 21 days post infection (=start of treatment), the levels infection were checked in 4 randomly chosen animals by making a smear from a liver biopsy for determination of the parasite burden (cfr. infra).
• Miltefosine was formulated at 20 mg/ml and 10 mg/ml in PBS and stored at room temperature in the dark. A clear transparent solution was obtained. • OlPC-PBS was formulated at 21.25 mg/ml and 10.63 mg/ml in PBS and stored at room temperature in the dark. A clear transparent solution was obtained. • OlPC-liposome formulation was prepared at 18 mg/ml (dosed at 2.4 ml/kg=120 μl/50 gram). The formulation was diluted 2 times in PBS to obtain a OlPC-formulation of 9 mg/ml (dosed at 1.2 ml/kg=[…])) Treatment
Oral treatment started 21 days after infection (dpi) and was continued for 5 consecutive days. Dosing volume was 100 μl per 50 gram BW (bodyweight).
Parasite Burden: amastigote burdens in the different target organs (liver, spleen, bone-marrow) were determined 10 days after the last treatment (i.e. day 35 of the experiment). The organs of individual animals were weighed (except bone-marrow); impression smears were fixed in methanol and stained with Giemsa for microscopic evaluation of the number of amastigotes per cell by counting a minimum of 500 nuclei1. The results are expressed as Leishman Donovan Units (LDU)=mean number of amastigotes per nucleus×mg organ weight. Percentage reduction as compared to vehicle-treated infected control animals (VIC) is used as a measure for drug activity. Particularly for spleen and bone-marrow, the viability of possible residual burdens was assessed using the promastigote transformation assay.

[2] = Thermogravimetric analysis (TGA) of OlPC; type: physicochemical; settings: with 1% of mass loss, heating rate 10° C./min
Experimental: Thermogravimetric Analysis (TGA) measures weight changes in a material as a function of temperature (or time) under a controlled atmosphere. Its principal use includes measurement of a material's thermal stability and composition. The TGA analysis was performed using a HR TGA 2950 (TA Instruments, Leatherhead, UK). Samples (±15 mg) were equilibrated at 50° C. and then heated to 500° C. at a heating rate of 10° C./min and the percentage of weight loss was recorded. The OlPC compound show thermal degradation at 159.27° C. with 1% of mass loss.

[3] = Dynamic vapor sorption, OlPC hygroscopicity; type: physicochemical; settings: 25° C.
Experimental: Active pharmaceutical ingredients (API) frequently show a propensity to interact with water molecules, leading to absorption of moisture in their bulk structure or adsorption on their surfaces. Such behaviour can critically affect many pharmaceutical properties such as purity, solubility and chemical stability, density, surface area, powder flow, compact ability and crystal form. […] Dynamic vapor sorption (DVS) analyzes determine hygroscopicity profiles using a very small sample (≈15 mg), and provide both qualitative and quantitative information on water uptake.
Water sorption/desorption isotherm of OlPC was determined gravimetrically at 25° C. (SD, 0.1° C.) using a DVS Advantage 1 with a Cahn D200 microbalance (Surface Measurement Systems, London, UK). Between 10 and 20 mg was weighed in the sample cup of the instrument, subjected to a drying step in order to bring the sample to a constant weight and subsequently exposed to increasing relative humidity (RH) (using 10% increments up to 90%). Following the sorption phase, the sample was exposed to a decreasing RH (in steps of 10% until 0% RH). Each step continued until equilibrium was reached (i.e. when the change in mass smaller than 0.002% per minute during at least 10 min) or until 6 h had passed. The mass change was recorded every minute with a resolution of ±0.1 μg.

Water solubility of OlPC = type: physicochemical
Experimental: The wet granulation process for OlPC solid dosage formulation requires that OlPC is solubilised in water. OlPC as a water solubility of 0.2 g/ml, which implies that for each tablet with 50 mg of OlPC at least 250 μl of water per tablet has to be incorporated in the dry powder mixture.

[4] = Compatibility of OlPC with binder in solution; type: physicochemical
From the text: The tablets produced presented high levels of friability and high disintegration time. It was observed that the presence of polyvynilpyrrolidone in solution with OlPC induces the formation of an unknown precipitated which indicates the presence of an incompatibility between the two compounds.
Hydroxypropylmethylcellulose was then selected to replace polyvynilpyrrolidone as a binder in the subsequent formulation assays.

[5] = test system: Leishmania infantum (MHOM/MA (BE)/67) amastigotes; assay: Follow up experiment: single versus multiple oral administrations in L. infantum infected hamsters; type: in vivo; settings: hamster, total doses 25, 50 and 100 mg/kg oral, liver, spleen, bone marrow
Experimental: (§1) In a follow up experiment, the same experimental protocol was used to compare the efficacy of oral oleyl phosphocholine (OlPC) at total doses of 25, 50 and 100 mg/kg when given as single or multiple oral administrations (5×5, 10 and 20 mg/kg, respectively).
(§2) Female hamsters (n=60) were intracardially infected with 2×10^7 Leishmania infantum (MHOM/MA (BE)/67) amastigotes on day 0. Treatment started at day+21 post infection for 5 consecutive days once daily with a total dose of […] given as single or multiple oral administrations. Amastigote burdens in the different target organs (liver, spleen, bone-marrow) were determined 10 days after the last treatment (day+35). The organs of individual animals were weighed (except bone-marrow); impression smears were fixed in methanol and stained with Giemsa for microscopic evaluation of the number of amastigotes per cell by counting a minimum of 500 nuclei. The results (FIG. 4) are expressed as Leishman Donovan Units (LDU)=mean number of amastigotes per nucleus×mg organ weight.

[6] = Tolerability in hamsters, follow up experiment; type: in vivo; settings: hamster, oral, single administrations as high as 100 mg/kg
Experimental: as §1, §2

L. infantum = assay: Treatment of dogs naturally infected with L. infantum, clinical score; type: in vivo; settings: 4 mg/kg/day orally 14 days
Experimental: (§3) The dose of 4 mg/kg/day oleylphosphocholine was used to treat orally during 14 days a cohort of 6 dogs from a shelter naturally infected with L. infantum and classified as clinically sick. The dogs were assessed at the clinical (physical examination and clinic-pathological abnormalities) and parasitological levels at the beginning of the treatment (day 0) and on day 15, 30 and 90.

[7] = Tolerance in treated naturally infected dogs; type: in vivo; settings: 6 dogs, 4 mg/kg/day orally 14 days
Experimental: as §3

[8] = 49.1 μmol/kg (20 mg/kg) orally for 5 days
[9] = 98.1 μmol/kg (40 mg/kg) orally for 5 days

## CCCCCCCCCCCCCCCCOP(=O)([O-])OCC[N+](C)(C)C [Miltefosine]
[1]; [8]
  Bone marrow % red: 39%
  Liver % red: 0%
  Spleen % red: 61%
[1]; 49.1 μmol/kg (20 mg/kg) orally for 5 days, listed as MIL
  Liver % red: no reduction
[1]; 49.1 μmol/kg orally for 5 days
  Bone marrow Mean ± SE of amastigotes per nucleus: 1.0 ± 0.34 amastigotes per nucleus
  Liver Mean ± SE of LDU: 9017 ± 1489 LDU
  Spleen Mean ± SE of LDU: 188 ± 44 LDU
[1]; [9]
  Bone marrow % red: 95%
  Liver % red: 65%
  Spleen % red: 99.2%
[1]; 98.1 μmol/kg (40 mg/kg) orally for 5 days, listed as MIL
  Spleen % red: 99%
[1]; 98.1 μmol/kg orally for 5 days
  Bone marrow Mean ± SE of amastigotes per nucleus: 0.1 ± 0.014 amastigotes per nucleus
  Liver Mean ± SE of LDU: 2764 ± 847 LDU
  Spleen Mean ± SE of LDU: 3.7 ± 1.67 LDU

## CCCCCCCC/C=C\CCCCCCCCOP(=O)([O-])OCC[N+](C)(C)C [OlPC, oleyl phosphocholine]
[2]
  thermal degradation temperature: 159.27 °C
[3]; exposed to 90% RH
  water absorbed: 41.67%
[3]; water sorption and desorption profiles
  hygroscopicity: very hygroscopic
Water solubility of OlPC
  water solubility: 200 mg/mL (≈ 461 mM)
[4]
  compatibility with hydroxypropylmethylcellulose: no such incompatibility was observed
[4]; unknown precipitate formed
  compatibility with polyvinylpyrrolidone in solution: incompatibility
[5]
  overall parasite suppression levels, single versus multiple administrations: similar
[6]
  tolerability / signs of toxicity: well tolerated
L. infantum; day 15 (day 0: 19, range 14-31)
  average clinical score (CS): 12 (range 7-16)
L. infantum; day 30 (day 0: 19, range 14-31)
  average clinical score (CS): 5 (range 1-10)
L. infantum; day 90 (range 0-5; day 0: 19)
  average clinical score (CS): 2
[7]
  tolerance, side effects: two of the six dogs treated experienced diarrhea during the first week post-treatment, and a third one had diarrhea and 1 episode of vomiting
